Experimental data published in patent US20060142349A1, “Methods of modulating the activities of alpha-7 nicotinic acetylcholine receptor” (Pfizer Inc, priority 2004, published 2006).
Entries after “also recorded” stand apart in the source; their conditions may differ. Read-outs that look alike come from different tables or passages of the source.

How the values were obtained:
[1] = target: T1, α7 nicotinic acetylcholine receptor (Rattus norvegicus, UniProt Q05941); assay: Resensitization of desensitized α7 nicotinic acetylcholine receptor, whole cell patch clamp; type: cell-based
T1 construct: Currents were recorded from individual neurons using the whole; endogenous in cells; host or cells: primary hippocampal neurons from postnatal day 3 Sprague-Dawley rats, cultured 1-2 weeks
T1 sequence (Q05941 23-502): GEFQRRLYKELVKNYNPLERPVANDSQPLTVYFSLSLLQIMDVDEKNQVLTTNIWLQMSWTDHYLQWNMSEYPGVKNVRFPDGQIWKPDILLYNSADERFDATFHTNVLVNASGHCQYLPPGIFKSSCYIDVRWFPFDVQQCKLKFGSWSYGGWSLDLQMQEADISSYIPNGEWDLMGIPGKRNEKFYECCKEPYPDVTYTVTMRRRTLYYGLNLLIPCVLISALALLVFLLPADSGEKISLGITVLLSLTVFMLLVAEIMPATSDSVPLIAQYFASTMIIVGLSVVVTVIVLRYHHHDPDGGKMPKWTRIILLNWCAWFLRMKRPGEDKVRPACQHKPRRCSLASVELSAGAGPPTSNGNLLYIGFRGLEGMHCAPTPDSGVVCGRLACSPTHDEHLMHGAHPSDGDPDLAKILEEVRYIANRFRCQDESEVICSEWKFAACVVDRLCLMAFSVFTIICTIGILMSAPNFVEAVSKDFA

[2] = target: T1, α7 nicotinic acetylcholine receptor; assay: Inhibition of desensitization of α7 nicotinic acetylcholine receptor by acetylcholine, whole cell patch clamp; type: cell-based; conditions: rat hippocampal neurons, continuous exposure to compound, acetylcholine 1 mM applied for 1 second once every minute

Oc1ccc2[nH]ccc2c1 [5-hydroxyindole]
resensitization of the desensitized α7 nicotinic acetylcholine receptor (inward current evoked in the continued presence of agonist) ([1]; rat hippocampal neurons, applied after 60 seconds of continuous exposure to agonist Compound 1 (3 μM), in its continued presence): does not resensitize; also recorded: did not resensitize; also recorded: no significant effect | inhibition of desensitization (desensitization kinetics of acetylcholine-induced ion currents) [2]: does not alter the rate of receptor desensitization; also recorded: had no such effect; also recorded: did not affect the desensitization kinetics

Cl.O=C(N[C@H]1CN2CCC1CC2)c1ccc(Cl)cc1 [Compound 1, N-[(3R)-1-azabicyclo[2.2.2]oct-3-yl]-4-chlorobenzamide hydrochloride]
agonist-evoked inward current and receptor desensitization ([1]; rat hippocampal neurons, agonist applied continuously for 3 minutes, hydrochloride): desensitization; also recorded: initial inward current that rapidly declined back to baseline

COc1cc(OC)c(NC(=O)Nc2cc(C)on2)cc1Cl [Compound 2, N-(5-chloro-2,4-dimethoxyphenyl)-N′-(5-methylisoxazol-3-yl)urea]
resensitization of the desensitized α7 nicotinic acetylcholine receptor (inward current evoked in the continued presence of agonist) [1]: resensitizes; also recorded: large persistent inward current that was readily reversed upon washout | inhibition of desensitization (desensitization kinetics of acetylcholine-induced ion currents) [2]: inhibition | inhibition of desensitization (desensitization kinetics of acetylcholine-induced ion currents) ([2]; listed as compound 2): significant inhibition or slowing of receptor desensitization

CN1CCCC1c1cccnc1 (stereo not shown) [nicotine]
agonist-evoked inward current and receptor desensitization ([1]; nicotine as agonist, expected result ("should result")): initial inward current that rapidly declines back to baseline
